Data as given in ChEMBL document CHEMBL1141313 (Bioorg Med Chem, 2007).
pEC50, pIC50, pKi: −log10 of the molar value. Values belong to the molecule of their own block, whether it stands above or below them.

Key:
[1] = biological target: Protease (Human immunodeficiency virus 1) (UniProt Q9YQ12); assay: (§1) Inhibition of HIV1 protease
Protease [2] = biological target: T1, Protease (Human immunodeficiency virus 1, UniProt Q9YQ12); assay: as §1
Target sequence in this assay (Q9YQ12 whole entry): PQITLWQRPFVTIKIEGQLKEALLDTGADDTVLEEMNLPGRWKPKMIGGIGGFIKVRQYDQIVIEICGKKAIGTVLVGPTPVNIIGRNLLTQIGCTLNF

Protease [3] = biological target: T1, Protease; assay: Inhibition of HIV1 protease mutant
Target sequence in this assay (Q9YQ12 1-99): as the sequence (Q9YQ12 whole entry) above

[4] = system: Human immunodeficiency virus 1; assay: Antiviral activity against protease inhibitor-resistant HIV1 isolate; type: functional, organism-based
[5] = system: Human immunodeficiency virus 1; assay: Antiviral activity against HIV1 in CEM cells; type: functional; settings: Human immunodeficiency virus 1, CCRF-CEM; for pIC50: read-out: ID50 (the source's name)
[6] = system: Human immunodeficiency virus 1; assay: Antiviral activity against HIV1 in MT4 cells; type: functional

Protease (Human immunodeficiency virus 1), sequence (Q9YQ12 as listed by the source): as the sequence (Q9YQ12 whole entry) above

SMILES: COC(=O)N[C@H](C(=O)NCCCC[C@@H](CO)N(CC(C)C)S(=O)(=O)c1ccc(N)cc1)C(c1ccccc1)c1ccccc1
Activity [1]: < 20 nM

SMILES: C=CCNC(=O)[C@H]1NC(C(=O)[C@@H](O)[C@H](Cc2ccccc2)NC(=O)c2cccc(O)c2)SC1(C)C (stereo partly drawn)
pKi (Protease [2]): 10.00
pKi (Protease [3]): 10.00
pEC50 [4]: 7.47

SMILES: CC(C)(C)NC(=O)[C@@H]1C[C@@H]2CCCC[C@@H]2CN1C[C@@H](O)[C@H](Cc1ccccc1)NC(=O)O[C@H]1CO[C@H]2OCC[C@H]21
pIC50 (Protease [2]): 8.74
IC95 ([5]; read-out: CIC95): 46 nM

SMILES: COc1ccc(S(=O)(=O)N(CC(C)C)C[C@@H](O)[C@H](Cc2ccccc2)NC(=O)O[C@H]2CO[C@H]3OCC[C@H]32)cc1
pIC50 [5]: 8.92

SMILES: CC(C)CN(C[C@@H](O)[C@H](Cc1ccccc1)NC(=O)O[C@H]1CO[C@H]2OCC[C@H]21)S(=O)(=O)c1ccc(N)cc1
pIC50 [5]: 8.33
ID90 [6]: 10 nM
TD50 [6]: >100 µM

Now from value to molecule:

Activity [1]: < 20 nM
SMILES: COC(=O)N[C@H](C(=O)NCCCC[C@@H](COP(=O)(O)O)N(CC(C)C)S(=O)(=O)c1ccc(N)cc1)C(c1ccccc1)c1ccccc1

pIC50 (Protease [2]): 8.74
pKi (Protease [2]): 11.35
SMILES: CC(C)CN(C[C@@H](O)[C@H](Cc1ccccc1)NC(=O)O[C@@H]1C[C@@H]2CCO[C@@H]2C1)S(=O)(=O)c1ccc(CO)cc1
